According to article PMC11412156 (Journal of medicinal chemistry, 2024):

How the values were obtained:
[1] = molecular target: T1, HDAC11 (Homo sapiens, UniProt Q96DB2); assay: HDAC enzyme-based fluorogenic assay, HDAC11; format: biochemical
T1 sequence (Q96DB2 1-347): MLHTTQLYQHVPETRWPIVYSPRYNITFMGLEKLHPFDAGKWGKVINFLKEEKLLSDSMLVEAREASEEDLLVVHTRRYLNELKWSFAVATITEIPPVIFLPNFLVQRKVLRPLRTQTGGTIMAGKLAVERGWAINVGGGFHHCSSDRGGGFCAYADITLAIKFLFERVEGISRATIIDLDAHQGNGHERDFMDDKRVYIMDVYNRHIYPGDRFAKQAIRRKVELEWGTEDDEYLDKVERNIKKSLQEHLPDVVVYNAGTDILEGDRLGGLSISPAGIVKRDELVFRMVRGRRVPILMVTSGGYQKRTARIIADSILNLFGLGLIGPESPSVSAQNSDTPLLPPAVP

[2] = molecular target: HDAC3 (Homo sapiens, UniProt O15379); assay: HDAC enzyme-based fluorogenic assay, HDAC3; format: biochemical
Sequence of HDAC3 (O15379 whole entry): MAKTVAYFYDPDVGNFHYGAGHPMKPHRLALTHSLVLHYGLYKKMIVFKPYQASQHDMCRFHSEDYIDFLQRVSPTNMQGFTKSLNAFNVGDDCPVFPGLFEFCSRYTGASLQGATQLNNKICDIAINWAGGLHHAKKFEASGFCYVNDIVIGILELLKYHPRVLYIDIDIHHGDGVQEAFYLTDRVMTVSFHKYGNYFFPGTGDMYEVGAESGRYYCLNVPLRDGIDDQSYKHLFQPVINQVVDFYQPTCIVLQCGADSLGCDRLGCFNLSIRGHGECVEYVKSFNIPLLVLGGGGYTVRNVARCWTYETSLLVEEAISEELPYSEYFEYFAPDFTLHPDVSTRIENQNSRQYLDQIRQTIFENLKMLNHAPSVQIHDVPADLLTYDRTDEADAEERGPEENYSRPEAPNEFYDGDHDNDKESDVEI
Sequence of HDAC3 (Q9Y618 395-489 partner limits assumed): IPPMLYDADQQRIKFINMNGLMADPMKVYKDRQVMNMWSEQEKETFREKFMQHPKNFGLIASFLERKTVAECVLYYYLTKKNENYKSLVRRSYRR

[3] = Pharmacokinetic study in rats; format: in vivo, SD rats; conditions: for CL / Vz: SD rats, ig (oral) 50 mg/kg; for AUC(0-inf) / AUC(0-t) / Cmax / Tmax / Vd / clearance / half-life / bioavailability: both, Sprague-Dawley, rat, plasma; for bioavailability: oral
[4] = In vitro metabolic stability in rat liver microsomes; format: in vitro ADME; conditions: for half-life: Sprague-Dawley, rat, liver microsomes, pH 7.4; for metabolic stability in RLM, column 0: incubation 0 min; for metabolic stability in RLM, column 0 / metabolic stability in RLM, column 10 / metabolic stability in RLM, column 30 / metabolic stability in RLM, column 45 / metabolic stability in RLM, column 60: 37 °C, NADPH; for metabolic stability in RLM, column 10: incubation 10 min; for metabolic stability in RLM, column 30: incubation 30 min; for metabolic stability in RLM, column 45: incubation 45 min; for metabolic stability in RLM, column 60: incubation 60 min
[5] = molecular target: T2, HDAC8 (Homo sapiens, UniProt Q9BY41); assay: HDAC enzyme-based fluorogenic assay, HDAC8; format: biochemical
T2 sequence (Q9BY41 1-377): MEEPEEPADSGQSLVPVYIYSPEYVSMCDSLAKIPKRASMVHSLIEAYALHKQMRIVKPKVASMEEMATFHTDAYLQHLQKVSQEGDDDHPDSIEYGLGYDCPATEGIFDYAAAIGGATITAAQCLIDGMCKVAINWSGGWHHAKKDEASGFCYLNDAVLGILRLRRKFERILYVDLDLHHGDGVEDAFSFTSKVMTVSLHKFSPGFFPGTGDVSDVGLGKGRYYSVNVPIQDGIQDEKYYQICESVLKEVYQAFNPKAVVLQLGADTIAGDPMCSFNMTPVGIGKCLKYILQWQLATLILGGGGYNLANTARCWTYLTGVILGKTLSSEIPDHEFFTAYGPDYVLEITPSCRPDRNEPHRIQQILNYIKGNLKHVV

[6] = molecular target: T3, HsEH (Homo sapiens, UniProt P34913); assay: fluorescent-based sEH assay with PHOME as substrate; format: biochemical
T3 sequence (P34913 1-555): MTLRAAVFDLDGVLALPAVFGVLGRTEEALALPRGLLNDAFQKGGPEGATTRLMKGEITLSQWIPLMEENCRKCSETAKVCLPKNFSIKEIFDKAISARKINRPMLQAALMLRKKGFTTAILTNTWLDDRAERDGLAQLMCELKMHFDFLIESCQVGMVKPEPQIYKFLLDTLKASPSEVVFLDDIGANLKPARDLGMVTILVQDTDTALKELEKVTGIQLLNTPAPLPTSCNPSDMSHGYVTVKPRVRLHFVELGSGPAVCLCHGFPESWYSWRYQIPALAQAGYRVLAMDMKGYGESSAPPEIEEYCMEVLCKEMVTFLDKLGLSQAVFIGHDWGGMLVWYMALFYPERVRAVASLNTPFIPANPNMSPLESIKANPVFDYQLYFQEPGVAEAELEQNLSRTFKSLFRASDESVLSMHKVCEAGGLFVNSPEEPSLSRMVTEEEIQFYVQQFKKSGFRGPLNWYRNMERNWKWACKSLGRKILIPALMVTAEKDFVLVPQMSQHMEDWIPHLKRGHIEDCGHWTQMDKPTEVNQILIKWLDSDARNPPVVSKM

[7] = molecular target: HDAC1 (Homo sapiens, UniProt Q13547); assay: HDAC enzyme-based fluorogenic assay, HDAC1; format: biochemical
Sequence of HDAC1 (Q13547 whole entry): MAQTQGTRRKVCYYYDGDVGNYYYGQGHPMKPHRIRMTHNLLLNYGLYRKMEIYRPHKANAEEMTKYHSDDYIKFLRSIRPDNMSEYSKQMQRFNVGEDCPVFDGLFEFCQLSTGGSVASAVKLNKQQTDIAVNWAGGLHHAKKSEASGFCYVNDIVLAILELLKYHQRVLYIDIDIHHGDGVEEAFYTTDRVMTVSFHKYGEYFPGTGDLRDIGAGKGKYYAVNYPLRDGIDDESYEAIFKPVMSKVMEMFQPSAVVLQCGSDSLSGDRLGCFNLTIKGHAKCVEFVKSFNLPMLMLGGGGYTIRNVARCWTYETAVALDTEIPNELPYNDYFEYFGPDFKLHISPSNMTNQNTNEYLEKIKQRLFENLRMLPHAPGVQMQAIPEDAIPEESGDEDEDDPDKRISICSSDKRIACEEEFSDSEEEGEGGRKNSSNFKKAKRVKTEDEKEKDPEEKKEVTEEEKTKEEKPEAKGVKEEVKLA

[8] = Plasma protein binding by equilibrium dialysis; format: in vitro ADME; conditions: rat
[9] = molecular target: T4, MsEH (Mus musculus, UniProt P34914); assay: fluorescent-based sEH assay with PHOME as substrate; format: biochemical
T4 sequence (P34914 1-554): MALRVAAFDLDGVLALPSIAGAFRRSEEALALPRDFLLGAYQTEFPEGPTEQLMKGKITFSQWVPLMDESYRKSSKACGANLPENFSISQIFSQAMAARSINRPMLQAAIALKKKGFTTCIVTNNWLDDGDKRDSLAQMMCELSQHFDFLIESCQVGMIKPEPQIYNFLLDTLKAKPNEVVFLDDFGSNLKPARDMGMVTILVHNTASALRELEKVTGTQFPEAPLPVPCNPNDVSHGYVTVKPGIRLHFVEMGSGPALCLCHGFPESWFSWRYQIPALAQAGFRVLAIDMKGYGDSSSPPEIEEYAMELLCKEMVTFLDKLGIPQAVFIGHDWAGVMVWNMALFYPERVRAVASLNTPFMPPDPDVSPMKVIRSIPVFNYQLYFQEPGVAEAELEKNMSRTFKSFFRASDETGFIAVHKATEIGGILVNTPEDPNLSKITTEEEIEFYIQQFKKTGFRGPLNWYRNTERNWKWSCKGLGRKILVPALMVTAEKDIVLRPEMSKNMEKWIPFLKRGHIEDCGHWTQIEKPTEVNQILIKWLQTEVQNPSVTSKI

| SMILES | IC50 [1] [nM] | IC50 [2] [nM] | CL [3] [L/h] | Vz [3] [L] | AUC(0-inf) ([3]; iv, 10 mg/kg) [µM·h] | AUC(0-t) ([3]; iv, 10 mg/kg) [µM·h] | Cmax ([3]; iv, 10 mg/kg) [µM] | Tmax ([3]; iv, 10 mg/kg) [h] | Vd ([3]; iv, 10 mg/kg) [L] | clearance ([3]; iv, 10 mg/kg) [mL/min] | half-life ([3]; iv, 10 mg/kg) [h] | bioavailability ([3]; 50 mg/kg) [%] | AUC(0-inf) ([3]; po, 50 mg/kg) [µM·h] | AUC(0-t) ([3]; po, 50 mg/kg) [µM·h] | Cmax ([3]; po, 50 mg/kg) [µM] | Tmax ([3]; po, 50 mg/kg) [h] | half-life ([3]; po, 50 mg/kg) [h] | half-life [4] [h] | metabolic stability in RLM, column 0 [4] | metabolic stability in RLM, column 10 [4] | other results |
| --- | --- | --- | --- | --- | --- | --- | --- | --- | --- | --- | --- | --- | --- | --- | --- | --- | --- | --- | --- | --- | --- |
| O=C(CCCCCCNC(=O)[C@H]1CCCN(C(=O)c2ccc(NC(=O)Nc3ccc(Cl)c(F)c3)c(F)c2)C1)NO [Compound 28g, (S)-1-(4-(3-(4-Chloro-3-fluorophenyl)ureido)-3-fluorobenzoyl)-N-(7-(hydroxyamino)-7-oxoheptyl)piperidine-3-carboxamide] | 464 | 1280 | 0.82 | 4.20 | 21.2 | 12.3 | 7.87 | 0.08 | 1.28 | 2.67 | 5.43 | 24.4 | 21.2 | 15 | 6.63 | 0.5 | 3.55 | 2.28 | 100.00 | 91.61 | metabolic stability in RLM, column 30 [4]: 83.80; metabolic stability in RLM, column 45 [4]: 78.76; metabolic stability in RLM, column 60 [4]: 70.64; IC50 [5]: 62 nM; IC50 [6]: 0.9 nM; IC50 [7]: 1150 nM; fraction unbound [8]: 0.113; IC50 [9]: 46.8 nM |
| O=C(CCCCCCNC(=O)[C@H]1CCCN(C(=O)c2ccc(NC(=O)Nc3cc(F)cc(F)c3)c(F)c2)C1)NO [Compound 28j, (S)-1-(4-(3-(3,5-Difluorophenyl)ureido)-3-fluorobenzoyl)-N-(7-(hydroxyamino)-7-oxoheptyl)piperidine-3-carboxamide] | 1050 | 2620 | 0.96 | 3.95 | 20 | 13.8 | 8.1 | 0.08 | 1.1 | 3 | 4.08 | 21.5 | 18.7 | 14.8 | 10.1 | 0.17 | 2.84 | 0.939 | 100.00 | 85.62 | metabolic stability in RLM, column 30 [4]: 73.00; metabolic stability in RLM, column 45 [4]: 59.75; metabolic stability in RLM, column 60 [4]: 50.47; IC50 [5]: 72 nM; IC50 [6]: 3.6 nM; IC50 [7]: 1030 nM; fraction unbound [8]: 0.119; IC50 [9]: 103 nM |
